Measurements from patent US5475021A, “Compounds and compositions for inhibition of cyclooxygenase activity” (Vanderbilt University, priority 1993, dated 1995).
Like-named read-outs stand apart in the source and are kept apart here.

Columns and labels:
holo PGHS [1] = conditions: Ser 530 in sheep (Ser 529 in humans); cited from earlier work
[2] = target: T1, PGHS (cyclooxygenase activity) (Ovis aries, UniProt P05979); test: IC50 for inactivation of cyclooxygenase activity of PGHS after 30 min incubation; assay type: biochemical, ram (seminal vesicles)
T1 construct: PGHS was purified from ram seminal vesicles; from tissue; host or cells: ram seminal vesicles
T1 sequence (P05979 25-600): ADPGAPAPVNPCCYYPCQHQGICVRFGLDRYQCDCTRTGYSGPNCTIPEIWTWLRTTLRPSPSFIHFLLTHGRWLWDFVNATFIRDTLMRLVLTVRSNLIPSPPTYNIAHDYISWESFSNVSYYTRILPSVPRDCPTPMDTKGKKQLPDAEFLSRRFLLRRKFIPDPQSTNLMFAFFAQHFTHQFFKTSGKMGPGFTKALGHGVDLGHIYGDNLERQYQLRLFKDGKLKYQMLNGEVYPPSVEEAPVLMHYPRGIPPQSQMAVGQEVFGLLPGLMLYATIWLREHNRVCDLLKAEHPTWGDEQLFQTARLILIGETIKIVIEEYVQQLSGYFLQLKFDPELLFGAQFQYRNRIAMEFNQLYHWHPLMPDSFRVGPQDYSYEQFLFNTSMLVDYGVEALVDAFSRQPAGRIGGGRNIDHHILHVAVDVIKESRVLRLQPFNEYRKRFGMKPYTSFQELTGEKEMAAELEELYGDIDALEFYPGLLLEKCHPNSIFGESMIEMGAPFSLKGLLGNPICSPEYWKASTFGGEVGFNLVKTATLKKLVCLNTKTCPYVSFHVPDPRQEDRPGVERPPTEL
Method: (§1) PGHS was purified from ram seminal vesicles.
(§2) Oxygen consumption was measured at 37° C. with a Gilson model 5/6 oxygraph equipped with a clark electrode and a thermostatted cuvette. Enzyme aliquots were added to 100 mM Tris-HCl at pH 8 containing 500 μM phenol and […] hematin. Oxygen uptake was initiated by the addition of 100 mM sodium arachidonate, and the initial reaction velocity was determined from the linear portion of the oxygen uptake curve.
Varying inhibitor concentrations were incubated with reconstituted holo PGHS (final concentration in the oxygraph cell was 250 nM) at room temperature for 30 min. Aliquots of this incubation mixture were added to the oxygraph cell containing 100 mM Tris-HCl at pH 8 with 500 μm of phenol and 1 μM hematin. The reaction mixture was allowed to reconstitute for 1 min and the cyclooxygenase reaction was initiated by the addition of 100 mM sodium arachidonate. (Table 1)
In all experiments the enzyme concentrations was 0.25 μM.

[3] = target: T2, holo PGHS (cyclooxygenase activity) (Ovis aries, UniProt P05979); test: Time dependent inactivation of cyclooxygenase activity; assay type: biochemical, ram (seminal vesicles); conditions: enzyme 0.25 μM; for Oxygen Consumption, T = 0: control 221; for Oxygen Consumption, T = 30: T = 30 (min), control 210; for Oxygen Consumption, T = 60: control 211
T2 sequence (P05979 25-600): T1 sequence (P05979 25-600)
Method: as §1, §2
A reaction mixture containing a 100 fold excess of the inhibitor(versus the enzyme concentration) (from a 10 mM stock in DMSO) and holo PGHS (5.3 mg/mL) (reconstituted with one equivalent of hematin) was incubated in a eppendorf tube at room temperature. Aliquots of the incubation mixture, at time intervals of t=0, 30 and 60 min were added to the oxygraph cell already containing 1.25 mL Tris HCL, 100 mM, pH 8, at 37° C., 500 μM phenol and 25 μL of 50 μM hematin. The cyclooxygenase reaction was initiated by the addition of 13 μL of 10 mM sodiumarachidonate in 10% MeOH (final concentration of AA was 100 μM). The oxygen consumption was measured from the linear portion of the O2 uptake curve.

[4] = target: T3, holo PGHS (peroxidase activity) (Ovis aries, UniProt P05979); test: Instantaneous inactivation of peroxidase activity (guaiacol oxidation); assay type: biochemical, ram (seminal vesicles); conditions: for IC50: enzyme 0.25 μM
T3 construct: PGHS was purified from ram seminal vesicles; from tissue; host or cells: ram seminal vesicles
T3 sequence (P05979 25-600): T1 sequence (P05979 25-600)
Method: as §1
Enzyme aliquots were added to 100 mM Tris HCl (pH 8) containing […] heme, 500 μM guaiacol in disposible cuvettes. Reaction was initiated by the addition of 400 μM H2 O2.
This reaction mixture was treated with a given concentration of the inhibitor and then as quickly as possible the peroxidase reaction was initiated by the addition of 0.4 mM H2 O2. The initial rates of oxidation were measured for 20 sec at a repeat rate of 1 second. (Table 4)

[5] = target: T4, Holo Prostaglandin Endoperoxide Synthase (cyclooxygenase activity) (Ovis aries, UniProt P05979); test: Instantaneous inactivation of the cyclooxygenase activity of holo PGHS (oxygen consumption); assay type: biochemical, ram (seminal vesicles); conditions: for IC50: enzyme 0.25 μM, oxygen consumption
T4 construct: PGHS was purified from ram seminal vesicles; from tissue; host or cells: ram seminal vesicles
T4 sequence (P05979 25-600): T1 sequence (P05979 25-600)
Method: as §1, §2
The reaction mixture was allowed to reconstitute for 1 min and then varying inhibitor concentration were added to the reaction mixture. As quickly as possible, the cyclooxygenase reaction was initiated by the addition of 100 mM sodium arachidonate. […]

cyclooxygenase = conditions: cited from earlier work
mouse = conditions: doses much below those required by indomethacin; cited from earlier work
guinea pigs = conditions: doses much below those required by indomethacin; cited from earlier work
[6] = target: T5, cyclooxygenase activity of PGHS (Ovis aries, UniProt P05979); test: Inhibition of cyclooxygenase activity of PGHS by analog 2; assay type: biochemical
T5 sequence (P05979 25-600): T1 sequence (P05979 25-600)
Text: Preliminary structure-activity studies on compounds with structural similarity indicate the position of oxygen on the omega side chain and the stereochemistry on the oxobicycloheptane ring as the governing factors in the inhibition.
The basis for the inhibitory activity of a given NSAID depends on the interaction of the NSAID with the active site of the enzyme it inhibits. A working model for the active site of fatty acid cyclooxygenase with the pattern recognition of known inhibitors as well as conformational minimizations of the natural substrate AA has been constructed. The Squibb group recently described a novel series of 7-oxabicycloheptylpro stanoic acid derivatives that inhibit AA-induced platelet aggregation and AA oxygenation by platelet and bovine seminal microsomes. […]

[7] = cited from earlier work
PGHS protein = test: Mechanistic studies: conformational change in the PGHS protein
holo PGHS [8] = test: Inactivation of holo PGHS; assay type: biochemical
Text: (§3) Thiyl radicals (as reviewed in Shoeneich, 1992) can be potentially generated from cysteines present in PGHS, in the catabolism of arachidonic acid. […] Site-directed mutagenesis experiments to mutate these cysteines to serines and their corresponding effect on prostaglandin biosynthesis are presently being carried out.

[9] = test system: PGHS (peroxidase activity); test: Inactivation of peroxidase activity of PGHS by cysteine specific reagents; assay type: biochemical
Text: as §3

[10] = test system: PGHS (cyclooxygenase activity); test: Inactivation of cyclooxygenase activity of PGHS by cysteine specific reagents; assay type: biochemical
Text: as §3

[11] = enzyme 0.25 μM, 30 min incubation with inhibitor, read-out: IC50 for inactivation of cyclooxygenase activity of PGHS
[12] = read-out: IC50 (aspirin analogs 44 and 45)

In the case of `CC(=O)Oc1ccccc1C(=O)O` [Aspirin], the “acylation of Ser 530 of PGHS” value (holo PGHS [1]) is given as “inactivates the cyclooxygenase activity of holo PGHS by regioselective acylation of Ser 530”.
Work on `CCCCCCCCCCN1C(=O)C=CC1=O` [Compound 10] yielded an IC50 [2, 11] of 27 µM.
For `O=C(O)CCCCCCN1C(=O)C=CC1=O` [Compound 2, N-7-(Maleimido)heptanoic acid], the “Oxygen Consumption, T = 0” value ([3]; inhibitor 16 μM) was 195 µM/min, the “Oxygen Consumption, T = 30” value ([3]; inhibitor 16 μM) was 142 µM/min and the “Oxygen Consumption, T = 60” value ([3]; inhibitor 16 μM, T = 60 (min)) was 106 µM/min. The IC50 [4] was over 800 µM, the remaining activity at 800 µM ([4]; pH 8, at 800 μM) was 81% and the IC50 [5] was 570 µM.
For `CC(=O)Oc1ccc(N2C(=O)C=CC2=O)cc1C(=O)O` [Compound 45], the IC50 [2, 12] was 29 µM.
In the case of “N-11-(Maleimido)undecanoic acid [Compound 5]”, the “Oxygen Consumption, T = 0” value ([3]; inhibitor 10 μM) is reported as 207 µM/min, the “Oxygen Consumption, T = 30” value ([3]; inhibitor 10 μM) is reported as 178 µM/min and the “Oxygen Consumption, T = 60” value ([3]; inhibitor 10 μM, T = 60 (min)) is reported as 81 µM/min. It also gave an IC50 [5] of 37 µM.
For `O=C(O)CCCCCCCCN1C(=O)C=CC1=O` [Compound 4, 9-(Maleimido)-1-nonanoic acid], the “Oxygen Consumption, T = 0” value ([3]; inhibitor 10 μM) was 203 µM/min, the “Oxygen Consumption, T = 30” value ([3]; inhibitor 10 μM) was 121 µM/min and the “Oxygen Consumption, T = 60” value ([3]; inhibitor 10 μM, T = 60 (min)) was 68 µM/min. It also gave an IC50 [5] of 26 µM.
For “2-[2-(N-Maleimidoethoxy)]benzoic acid [Compound 7]”, the “Oxygen Consumption, T = 0” value ([3]; inhibitor 16 μM) was 180 µM/min, the “Oxygen Consumption, T = 30” value ([3]; inhibitor 16 μM) was 27 µM/min and the “Oxygen Consumption, T = 60 (symbol)” value ([3]; inhibitor 16 μM, T = 60 (min)) was “--b”. For the same compound, the IC50 [5] was 140 µM.
In the case of `CC(=O)n1ccnc1` [N-acetylimidazole], the “acylation of Ser 530 of PGHS” value (holo PGHS [1]) is given as “did not result in regioselective acetylation”.
For `CCCCCCCCCN1C(=O)C=CC1=O` [Compound 9], the IC50 [2, 11] was 50 µM.
With `O=C(O)CCCCCN1C(=O)C=CC1=O` [Compound 1, N-6-(Maleimido)hexanoic acid] the “Oxygen Consumption, T = 0” value ([3]; inhibitor 16 μM) was 212 µM/min, the “Oxygen Consumption, T = 30” value ([3]; inhibitor 16 μM) was 205 µM/min and the “Oxygen Consumption, T = 60” value ([3]; inhibitor 16 μM, T = 60 (min)) was 204 µM/min. For the same compound, the IC50 [4] was over 800 µM and the IC50 [5] was over 800 µM.
For `CCCCCCOCC1C2CCC(O2)C1CC=CCCCC(=O)O` (centres unmarked) [analog 1], the “inhibition of cyclooxygenase activity in vitro” value (cyclooxygenase) is listed as “inhibition of cyclooxygenase activity in vitro”, the “prevention of AA-induced sudden death” value (mouse) is listed as “prevents AA-induced sudden death in the mouse” and the “prevention of AA-induced changes in lung mechanics” value (guinea pigs) is listed as “AA-induced changes in lung mechanics in guinea pigs at doses much below those required for similar effects by indomethacin”.
In the case of `O=C(O)CCCCCCCN1C(=O)CCC1=O` [Compound 39, N-8-(Succinimido)octanoic acid], the “instantaneous inactivation of cyclooxygenase activity” value (“instantaneous inactivation” below) [5] is reported as “did not inactivate PGHS”, the “inhibition of the enzyme at 500 fold excess” value ([5]; 500 fold excess) is reported as “did not inhibit the enzyme, even at a 500 fold excess” and the “instantaneous inactivation” value ([5]; listed as corresponding succinimide) is reported as “did not display any inactivation at analogous concentrations and at higher concentrations”.
In the case of `O=C(O)c1ccc(CN2C(=O)C=CC2=O)cc1` [Compound 12], the IC50 [2, 11] is reported as 12 µM.
Work on `Cc1ccccc1CN1C(=O)C=CC1=O` [Compound 11] yielded an IC50 [2, 11] of 9 µM.
For `CCCCCCOCC1C2CCC(O2)C1CC=CCCC(C)(C)C(=O)O` (centres unmarked) [analog 2], the “inhibition of cyclooxygenase activity in vitro” value (cyclooxygenase) is listed as “displays the same activities as analog 1”, the “time-dependent inhibition of cyclooxygenase activity” value [6] is listed as “potent time-dependent inhibitor” and the IC50 ([6]; enzyme concentration 140 nM) is listed as 0.08 µM. For the same compound, the IC100 ([6]; enzyme concentration 140 nM, read-out: concentration with complete inhibition) was 0.15 µM, the “duration of action in vivo, relative to analog 1” value [7] was “longer duration of action in vivo” and the “conformational change in the PGHS protein” value (PGHS protein) was “induces a conformational change in the PGHS protein”.
Compound `CCCCCCCCN1C(=O)C=CC1=O` [Compound 8] has an IC50 [2, 11] of 250 µM.
With `CC(=O)Oc1cc(N2C(=O)C=CC2=O)ccc1C(=O)O` [Compound 44] the “Inhibition of cyclooxygenase at 200 μM (footnote a, Table 2)” value ([2]; 200 μM, 30 min incubation) was “No significant inhibition observed” and the IC50 [2, 12] was over 200 µM.
Compound `O=C(O)c1ccccc1OCCN1C(=O)C=CC1=O` [Compound 13] has an IC50 [2, 11] of 40 µM.
For `O=C(O)c1ccccc1OCCN1C(=O)C=CC1=O` [Compound 6 (Example 1), 2-[2-(N-Maleimidoethoxy)]benzoic acid], the “instantaneous inactivation” value [5] was “failure”.
In the case of `CCN1C(=O)C=CC1=O` [NEM, N-ethylmaleimide], the “inactivation of holo PGHS” value (holo PGHS [8]) is reported as “inactivates holo”, the “inactivation of peroxidase activity by cysteine specific reagent” value [9] is reported as “time- and concentration-dependent inactivation” and the “inactivation of cyclooxygenase activity by cysteine specific reagent” value [10] is reported as “time- and concentration-dependent inactivation”.
